# Measurements published in patent US20240173255A1, “Polymeric Micelle Coated with Chain-Like Poorly Soluble Drug, Preparation Method and Application” (Hangzhou Hanjing Biotechnology Co., Ltd, priority 2021, published 2024).
# Experiments:
# [1] = Water solubility stated in background; details: background statement
# [2] = Solubility of series A to E drugs in water and 10% Soluplus solution; type: physicochemical; details: for Solubility in 10% Soluplus: 10% Soluplus solution
# From the text: The solubilities of the poorly soluble chain-like drugs of the series A to E according to the present disclosure in water and a 10% Soluplus solution are shown in Table 2.
# [3] = Solubility of compound CPD4 in different solvents or carriers (HPLC of supernatant); type: physicochemical
# Experimental: Taking the symmetric diselenoline molecule CPD4 from series A prepared according to Example 1 as an example, solubilities in different solvents and carriers were measured separately. A test method was conducted as follows: 1 mg of the compound was added into 1 mL of different solvents or carriers separately, ultrasonicated in a water bath for 10 min to fully dissolve the compound to obtain a mixture, and the mixture was stirred at ambient temperature for 12 h, and centrifuged, and a compound concentration in a resulting supernatant was determined by HPLC.
# [4] = Sodium acetate buffer (pH = 4.5)
structure (smiles),measurement,setting,value
COc1ccc2[se]n(CCCCCCn3[se]c4ccc(O)cc4c3=O)c(=O)c2c1,water solubility,[1],0.0033 mg/mL
O=c1c2ccccc2[se]n1CCCn1[se]c2ccccc2c1=O [CPD1],Solubility in 10% Soluplus,[2],0.2 mg/mL
same,Solubility in water,[2],0.004 mg/mL
O=c1c2ccccc2[se]n1CCCCn1[se]c2ccccc2c1=O [CPD2],Solubility in 10% Soluplus,[2],0.2 mg/mL
same,Solubility in water,[2],0.001 mg/mL
O=c1c2ccccc2[se]n1CCCCCn1[se]c2ccccc2c1=O [CPD3],Solubility in 10% Soluplus,[2],0.3 mg/mL
same,Solubility in water,[2],0.001 mg/mL
O=c1c2ccccc2[se]n1CCCCCCn1[se]c2ccccc2c1=O [CPD4],Solubility in 10% Soluplus,[2],0.5 mg/mL
same,Solubility in water,[2],0.001 mg/mL
same,Dissolution multiple,[3]; Acetone,275
same,Solubility,[3]; Acetone,0.44 ± 0.04 mg/mL
same,Dissolution multiple,[3]; Acetonitrile,263
same,Solubility,[3]; Acetonitrile,0.42 ± 0.005 mg/mL
same,Dissolution multiple,[3]; DMF,10819
same,Solubility,[3]; DMF,17.31 ± 0.32 mg/mL
same,Dissolution multiple,[3]; DMSO,21131
same,Solubility,[3]; DMSO,33.81 ± 0.70 mg/mL
same,Dissolution multiple,[3]; Dichloromethane,1981
same,Solubility,[3]; Dichloromethane,3.17 ± 0.16 mg/mL
same,Dissolution multiple,[3]; Ethanol,800
same,Solubility,[3]; Ethanol,1.28 ± 0.04 mg/mL
same,Dissolution multiple,[3]; Ethyl acetate,150
same,Solubility,[3]; Ethyl acetate,0.24 ± 0.02 mg/mL
same,Dissolution multiple,[3]; Hydrochloric acid (pH = 1.2),1.38
same,Solubility,[3]; Hydrochloric acid (pH = 1.2),0.0022 ± 0.00026 mg/mL
same,Dissolution multiple,[3]; Isopropanol,613
same,Solubility,[3]; Isopropanol,0.98 ± 0.06 mg/mL
same,Dissolution multiple,[3]; Liposome: Cholesterol,46
same,Solubility,[3]; Liposome: Cholesterol,0.06 ± 0.001 mg/mL
same,Dissolution multiple,[3]; Liposome: Lecithin,40
same,Solubility,[3]; Liposome: Lecithin,0.04 ± 0.005 mg/mL
same,Dissolution multiple,[3]; Methanol,881
same,Solubility,[3]; Methanol,1.41 ± 0.13 mg/mL
same,Dissolution multiple,[3]; PBS (pH = 7.4),0.5
same,Solubility,[3]; PBS (pH = 7.4),0.0008 ± 0.00015 mg/mL
same,Dissolution multiple,[3]; [4],0.81
same,Solubility,[3]; [4],0.0013 ± 0.00047 mg/mL
same,Dissolution multiple,[3]; Solid adjuvant F68,8.1
same,Solubility,[3]; Solid adjuvant F68,0.013 ± 0.003 mg/mL
same,Dissolution multiple,[3]; Solid adjuvant F127,61
same,Solubility,[3]; Solid adjuvant F127,0.098 ± 0.008 mg/mL
same,Dissolution multiple,[3]; Solid adjuvant HP-β-CD,38
same,Solubility,[3]; Solid adjuvant HP-β-CD,0.060 ± 0.003 mg/mL
same,Dissolution multiple,[3]; Solid adjuvant PEG2000,4.4
same,Solubility,[3]; Solid adjuvant PEG2000,0.007 ± 0.002 mg/mL
same,Dissolution multiple,[3]; Solid adjuvant PEG4000,5
same,Solubility,[3]; Solid adjuvant PEG4000,0.008 ± 0.001 mg/mL
same,Dissolution multiple,[3]; Solid adjuvant PEG6000,3.8
same,Solubility,[3]; Solid adjuvant PEG6000,0.006 ± 0.001 mg/mL
same,Dissolution multiple,[3]; Solid adjuvant SBE-β-CD,44
same,Solubility,[3]; Solid adjuvant SBE-β-CD,0.071 ± 0.004 mg/mL
same,Dissolution multiple,[3]; Soluplus,400
same,Solubility,[3]; Soluplus,0.515 ± 0.008 mg/mL
same,Dissolution multiple,[3]; n-Octanol,662
same,Solubility,[3]; n-Octanol,1.06 ± 0.08 mg/mL
same,Solubility,[3]; water,0.0016 ± 0.00005 mg/mL
O=c1c2ccccc2[se]n1CCCCCCCn1[se]c2ccccc2c1=O [CPD5],Solubility in 10% Soluplus,[2],0.5 mg/mL
same,Solubility in water,[2],0.001 mg/mL
O=c1c2cccc(F)c2[se]n1CCCCn1[se]c2c(F)cccc2c1=O [CPD7],Solubility in 10% Soluplus,[2],0.25 mg/mL
same,Solubility in water,[2],0.002 mg/mL
O=c1c2cccc(F)c2[se]n1CCCCCn1[se]c2c(F)cccc2c1=O [CPD8],Solubility in 10% Soluplus,[2],0.3 mg/mL
same,Solubility in water,[2],0.001 mg/mL
O=c1c2cccc(F)c2[se]n1CCCCCCn1[se]c2c(F)cccc2c1=O [CPD9],Solubility in 10% Soluplus,[2],0.8 mg/mL
same,Solubility in water,[2],0.001 mg/mL
O=c1c2cccc(F)c2[se]n1CCCCCCCn1[se]c2c(F)cccc2c1=O [CPD10],Solubility in 10% Soluplus,[2],0.6 mg/mL
same,Solubility in water,[2],0.001 mg/mL
COc1ccc2[se]n(CCCn3[se]c4ccc(O)cc4c3=O)c(=O)c2c1 [CPD11],Solubility in 10% Soluplus,[2],>1 mg/mL
same,Solubility in water,[2],0.015 mg/mL
COc1ccc2[se]n(CCCCCn3[se]c4ccc(O)cc4c3=O)c(=O)c2c1 [CPD13],Solubility in 10% Soluplus,[2],>1 mg/mL
same,Solubility in water,[2],0.01 mg/mL
COc1ccc2[se]n(CCCCCCCn3[se]c4ccc(O)cc4c3=O)c(=O)c2c1 [CPD15],Solubility in 10% Soluplus,[2],>1 mg/mL
same,Solubility in water,[2],0.01 mg/mL
COc1ccc2[se]n(CCCCn3[se]c4ccc(OCCCN=[N+]=[N-])cc4c3=O)c(=O)c2c1 [CPD17],Solubility in 10% Soluplus,[2],>1 mg/mL
same,Solubility in water,[2],<0.01 mg/mL
COc1ccc2[se]n(CCCCCn3[se]c4ccc(OCCCN=[N+]=[N-])cc4c3=O)c(=O)c2c1 [CPD18],Solubility in 10% Soluplus,[2],>1 mg/mL
same,Solubility in water,[2],<0.01 mg/mL
COc1ccc2[se]n(CCCCCCn3[se]c4ccc(OCCCN=[N+]=[N-])cc4c3=O)c(=O)c2c1 [CPD19],Solubility in 10% Soluplus,[2],>1 mg/mL
same,Solubility in water,[2],<0.01 mg/mL
COc1ccc2[se]n(CCCCCCCn3[se]c4ccc(OCCCN=[N+]=[N-])cc4c3=O)c(=O)c2c1 [CPD20],Solubility in 10% Soluplus,[2],>1 mg/mL
same,Solubility in water,[2],<0.01 mg/mL
